Reference: US20160243168A1, “ADOPTIVE CELL TRANSFER METHODS” (Cantex Pharmaceuticals, Inc., priority 2015, published 2016)
Where two headings read alike, the source gives them in different places.

Experiments:
anticoagulant activity = assay: USP anticoagulant assay; type: biochemical; conditions: seven serial 1.2 kg batches
Xa [1] = assay: anti-Xa activity assay (plasma treated with Russell viper venom); type: biochemical; conditions: seven serial 1.2 kg batches
Description: Another measure of ODSH's anticoagulant activity is its anti-Xa activity which can be determined in an assay carried out using plasma treated with Russell viper venom.

IIa = IIa (Homo sapiens, UniProt P00734+P01008); assay: anti-IIa activity assay; type: biochemical; conditions: seven serial 1.2 kg batches
[2] = target: T1, binding of CXCL12 (SDF-1) to CXCR4 (Homo sapiens, UniProt P48061); assay: in vitro inhibition assay of CXCL12 binding to CXCR4 (plate ELISA); conditions: recombinant human CXCL12 coated plate, recombinant CXCR4, absorbance 450 nm
T1 construct: purchased R&D Systems (CXCL12); Abnova (CXCR4)
T1 sequence (P48061 22-89 limits assumed): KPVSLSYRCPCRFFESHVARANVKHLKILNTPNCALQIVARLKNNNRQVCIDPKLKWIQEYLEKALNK
Protocol: Polyvinyl 96-well high bind microplates (Corning Life Sciences, Corning, N.Y.) were coated with 0.5 μg/well of recombinant human CXCL12 (R&D Systems, Minneapolis, Minn.). Plates were incubated overnight at 4° C. and washed three times with PBS-0.05% Tween-20 (PBST). Separately, a constant amount of recombinant CXCR4 (Abnova, Taipei, Taiwan, 100 μL containing 0.8 μg/mL in PBST-0.1% BSA) was incubated with an equal volume of serially diluted ODSH (0.001-1,000 μg/mL in PBST-BSA) overnight at 4° C. The following day, 50 μL of CXCR4-ODSH mix was transferred to each respective CXCL12-coated well and incubated at 37° C. for 2 h. Wells were then washed four times with PBST. To detect bound CXCR4, 50 μL of a mouse anti-human CXCR4 antibody (R&D Systems, Minneapolis, Minn.) (1 μg/mL, in PBST) was added to each well, the mixture was incubated for 1 h at room temperature, and the wells were washed again four times with PBST. Horse-radish peroxidase-conjugated secondary antibody (R&D Systems, Minneapolis, Minn.) (50 μL per well) was added, wells were incubated for 1 h at room temperature, and then washed once with PBST. […] Absorbance at 450 nm was read using an automated microplate reader. IC50 values were determined from the plot of absorbance values vs. concentrations of ODSH.

bone marrow cells = assay: serial bone marrow biopsies in the AML trial; type: in vivo, human
Description: Bone marrow biopsies were obtained in the AML trial described in Example 1.
FIGS. 2A-2C are photomicrographs of biopsies from one of the patients.

[3] = tested on: patients with newly diagnosed acute myeloid leukemia (AML); assay: single arm open-label clinical study, induction chemotherapy plus ODSH; type: in vivo, human
Protocol: A single arm open-label clinical study was conducted at multiple trial sites (University of Utah, Georgia Regents University, and Medical University of South Carolina) in patients with newly diagnosed acute myeloid leukemia (AML), seeking to confirm that ODSH could accelerate platelet and white blood cell (WBC) recovery in patients receiving induction chemotherapy with a regimen known to have myelosuppressive side effects.
All patients received the following standard (“7+3”) induction regimen, • Idarubicin (12 mg/m^2/day) by short intravenous infusion on Days 1, 2, and 3; and • Cytarabine (100 mg/m^2) as a continuous intravenous infusion over 24 hours (Days 1 through 7).
All patients also received ODSH as an intravenous bolus immediately after the idarubicin dose on Day 1, at a dose of 4 mg/kg, followed by a continuous intravenous infusion at a dose of 0.25 mg/kg/hr for a total of 7 days (Days 1 through 7).
Twelve patients were enrolled. The median age was 56 (range 22-74). Based on cytogenetic, molecular, or antecedent hematologic disorder, 9 of 12 patients fell into the intermediate or poor risk categories. […] Complete remission at the end of the induction cycle was assessed using International Working Group (IWG) criteria (see, e.g., Cheson et al., J. Clin. Oncol. 21:4642 (2003)). […]

Xa [4] = conditions: Rao et al. 2010; cited from earlier work

## 2-O, 3-O desulfated heparin [ODSH]
Anticoagulant activity
  USP anticoagulant activity: 7±0.3 U/mg
Xa [1]
  anti-Xa activity: 1.9±0.1 U/mg
IIa
  anti-IIa activity: 1.2±0.1 U/mg
[2]
  IC50 for inhibition of binding of CXCL12 (SDF-1) to CXCR4: 0.010 µg/mL
Bone marrow cells; Day 14 of the induction cycle, one patient
  bone marrow biopsy appearance: unexpected and significant depletion of normal bone marrow cells
Bone marrow cells; Day 28, one patient
  bone marrow biopsy appearance: no evidence of leukemia and restoration of normal bone marrow appearance and function
[3]; AML patients
  myelosuppressive side effects of the idarubicin+cytarabine regimen: significantly attenuated
[3]; current study, n = 12, morphologic complete remission by IWG criteria
  Complete response with first induction cycle: 92%

## unfractionated heparin [reference compound]
Anticoagulant activity
  USP anticoagulant activity: 165-190 U/mg
Xa [4]
  anti-Xa activity: 165-190 U/mg
Xa [1]
  anti-Xa activity: 165-190 U/mg
IIa
  anti-IIa activity: 165-190 U/mg
